Measured values taken from PMC6274350, “Design, Synthesis, and Cytotoxicity of 5-Fluoro-2-methyl-6-(4-aryl-piperazin-1-yl) Benzoxazoles” (Molecules, 2016).

Columns and labels:
[1] = CellTiter-Glo luminescent cell viability (cytotoxicity) assay on hepatocytes; assay type: cell-based, human; conditions: human, Liver cells, hepatocytes (HepaRG), 24 h, vs DMSO vehicle
Protocol: (§1) The cytotoxicity of prepared benzoxazoles (7a–j) and intermediates (6a–j and 9) were measured by applying the CellTiter-Glo® luminescent cell proliferation assay (G755A, Promega, Madison, WI, USA). This method permits the determination of viable cells numbers in the culture based on quantitation of the ATP present, which denotes the presence of metabolically active cells. In vitro cytotoxicity analysis was overall performed following the protocol as described in “Guidance Document on Using in Vitro Data to Estimate in Vivo Starting Doses for Acute Toxicity Based on Recommendations” [18]. Human A-549 cells are human lung cancer epithelial cells, which were chosen as the tumor model, whereas the HepaRG™ cell line is a classic hepatic cell line that retains many characteristics of primary human hepatocytes. HepaRG™ cells are terminally differentiated.
(§2) Human cell cultures: Hepatocytes (HepaRG^TM cells) were obtained from Life Technologies, and were cultivated in William’s E Medium (Gibco, Life Technologies, Waltham, MA, USA) and supplemented with 1x GlutaMAX™ plus 1x HepaRG^TM General Purpose Medium Supplement in 25-cm^2 or 75-cm^2 flasks (TPP, Trasadingen, Switzerland) at 37 °C and 5% CO2. Lung cancer epithelial cells A-549 were propagated in Epilife Medium (Gibco, Life Technologies; MEPICF) and combined with CaCl2 and 1x-growth-supplement containing penicillin and streptomycin (Gibco, Life Technologies). For sub-culturing, cells were split at a ratio of 1:4 to 1:8. For cryopreservation, cells were frozen in 10% DMSO in liquid nitrogen.
(§3) Human cytotoxicity assay: Human hepatocytes or human lung carcinoma cells were seeded into sterile black clear-bottomed polystyrene Corning® CellBind® 96-well plates (Munich, Germany) at a density of 20,000 cells/well after calculating cell numbers from trypsinized samples in a classical Neubauer Improved hemocytometer (VWR, Munich, Germany). The cells were grown for 24 h at 37 °C in a 5% CO2 atmosphere in Epilife medium (keratinocytes) or William′s E medium (hepatocytes). After a 24-h recovery period, media were removed from the wells by aspiration. The cells were then immediately exposed to the respective test compounds or reference antibiotics (prepared in advance in 100 µL of the same media) for 24 h 37 °C with 5% CO2. The concentration tested ranged from 0.1 µM to 500 µM (0.1 µM, 1 µM, 10 µM, 50 µM, 100 µM, 250 µM, and 500 µM) and was formulated as a 100× concentrated stock each, resulting in a final constant DMSO concentration of 1% per 100-µL sample volume. Test series were each performed in triplicate, and additionally included a vehicle reference (DMSO only) plus another internal control for evaluating overall assay performance. Additionally, cells were visually examined under a light microscope for any morphological abnormalities relative to the untreated cells. Subsequently, cell viability, as an indicator of potential cytotoxicity, was measured by applying the CellTiter-Glo® luminescent cell proliferation assay (G755A, Promega, Madison, WI, USA). This method permits the determination of the number of viable cells in culture based on quantitation of the ATP present, which denotes the presence of metabolically active cells. To this end, 100 µL (equal to the volume of culture medium) of the kit-provided CellTiter-Glo® reagent (reconstituted by transferring the thawed CellTiter-Glo® buffer to the lyophilized enzyme and substrate mixture) was directly added to each well with a repetitive dispensing pipette. The contents were then mixed for 2 min at room temperature on an orbital minishaker (IKA® MS3 digital, Staufen, Germany) at 450 rpm to induce efficient cell lysis, and then further incubated for 10 min at room temperature for stabilization of the resultant luminescent signal. […]

[2] = tested on: A-549 lung carcinoma cells; assay: CellTiter-Glo luminescent cell viability (cytotoxicity) assay on lung cancer cells; assay type: cell-based, human; conditions: for Lung cancer cells killed: A-549; for Lung cancer cells killed / viability at 10 µM: 10 µM; for viability at 0.1 µM / viability at 1 µM / viability at 10 µM / viability at 50 µM / viability at 100 µM: Homo sapiens, A549, Lung cancer cells (A-549), 24 h, vs DMSO vehicle
Protocol: as §1, §2, §3

[3] = Visible solubility / precipitation of test compounds in cell-culture media; assay type: physicochemical; conditions: 50 µM; no conclusion on cytotoxicity possible
Protocol: Since the majority of test compound solutions with concentrations above 50 µM precipitated in cell-culture media, we performed cytotoxicity assays for healthy and cancer cells at 50 µM.

Row | SMILES | melting point [°C] | viability at 24 h, 0.1 µM [1] [%] | viability at 24 h, 1 µM [1] [%] | viability at 24 h, 10 µM [1] [%] | viability at 24 h, 50 µM [1] [%] | viability at 24 h, 100 µM [1] [%] | Lung cancer cells killed [2] | viability at 0.1 µM [2] [%] | viability at 1 µM [2] [%] | viability at 10 µM [2] [%] | viability at 50 µM [2] [%] | viability at 100 µM [2] [%] | Precipitation in cell-culture media [3]
1 | O=[N+]([O-])c1cc(F)c(Cl)cc1O | 82 to 83 |  |  |  |  |  |  |  |  |  |  |  | 
2 | O=[N+]([O-])c1cc(F)c(N2CCN(c3ccccc3)CC2)cc1O [Compound 6a, 4-Fluoro-2-nitro-5-(4-phenyl-piperazin-1-yl)-phenol] | 197 to 198 | 86 | 97 | 112 | 90 | 76 | ~ 40% | 97 | 104 | 64 | 61 | 58 | 
3 | Cc1ccc(N2CCN(c3cc(O)c([N+](=O)[O-])cc3F)CC2)cc1 [Compound 6b, 4-Fluoro-2-nitro-5-(4-p-tolyl-piperazin-1-yl)-phenol] | 178 to 179 | 107 | 123 | 120 | 97 | 96 |  | 99 | 100 | 68 | 65 |  | 
4 | O=[N+]([O-])c1cc(F)c(N2CCN(c3ccc(O)cc3)CC2)cc1O [Compound 6c, 4-Fluoro-5-[4-(4-hydroxy-phenyl)-piperazin-1-yl]-2-nitro-phenol] | 218 to 219 | 95 | 101 | 110 | 101 | 89 |  | 104 | 103 | 102 | 94 |  | 
5 | COc1ccc(N2CCN(c3cc(O)c([N+](=O)[O-])cc3F)CC2)cc1 [Compound 6e, 4-Fluoro-5-[4-(4-methoxy-phenyl)-piperazin-1-yl]-2-nitro-phenol] | 202 to 204 | 107 | 110 | 104 | 74 | 79 |  | 101 | 104 | 96 | 71 |  | 
6 | O=[N+]([O-])c1cc(F)c(N2CCN(c3ccccc3O)CC2)cc1O [Compound 6f, 4-Fluoro-5-[4-(2-hydroxy-phenyl)-piperazin-1-yl]-2-nitro-phenol] | 176 to 178 | 105 | 104 | 110 | 76 |  |  | 97 | 100 | 93 | 60 | 46 | 
7 | O=[N+]([O-])c1cc(F)c(N2CCN(c3ccccc3F)CC2)cc1O [Compound 6g, 4-Fluoro-5-[4-(2-fluoro-phenyl)-piperazin-1-yl]-2-nitro-phenol] | 180 to 181 | 110 | 109 | 112 | 87 |  | ~ 40% | 96 | 96 | 62 | 51 | 42 | 
8 | O=[N+]([O-])c1cc(F)c(N2CCN(c3cccc(O)c3)CC2)cc1O [Compound 6h, 4-Fluoro-5-[4-(3-hydroxy-phenyl)-piperazin-1-yl]-2-nitro-phenol] | 207 to 208 | 117 | 109 | 108 | 83 | 58 |  | 106 | 106 | 105 | 87 |  | 
9 | COc1cccc(N2CCN(c3cc(O)c([N+](=O)[O-])cc3F)CC2)c1 [Compound 6i, 4-Fluoro-5-[4-(3-methoxy-phenyl)-piperazin-1-yl]-2-nitro-phenol] | 148 to 149 | 79 | 95 | 99 |  |  |  | 95 | 93 | 96 | 69 |  | precipitation problem
10 | O=[N+]([O-])c1cc(F)c(N2CCN(c3ccc(Cl)c(Cl)c3)CC2)cc1O [Compound 6j, 5-[4-(3,4-Dichloro-phenyl)-piperazin-1-yl]-4-fluoro-2-nitro-phenol] | 211 to 213 | 119 | 115 | 81 | 102 | 108 |  | 98 | 94 | 65 | 62 |  | 

Continued, in another order:

Row | melting point [°C] | SMILES | viability at 24 h, 0.1 µM [1] [%] | viability at 24 h, 1 µM [1] [%] | viability at 24 h, 10 µM [1] [%] | viability at 24 h, 50 µM [1] [%] | viability at 24 h, 100 µM [1] [%] | Lung cancer cells killed [2] | viability at 0.1 µM [2] [%] | viability at 1 µM [2] [%] | viability at 10 µM [2] [%] | viability at 50 µM [2] [%] | viability at 100 µM [2] [%] | Precipitation in cell-culture media [3]
11 | 153 to 154 | Cc1nc2cc(F)c(N3CCN(c4ccccc4)CC3)cc2o1 [Compound 7a, 5-Fluoro-2-methyl-6-(4-phenylpiperazin-1-yl)-benzo[d]oxazole] | 101 | 97 | 94 |  |  |  | 101 | 96 | 90 | 60 |  | precipitation problem
12 | 188 to 191 | Cc1nc2cc(F)c(N3CCN(c4ccc(O)cc4)CC3)cc2o1 [Compound 7c, 4-[4-(5-Fluoro-2-methyl-benzooxazol-6-yl)-piperazin-1-yl]-phenol] | 98 | 107 | 101 | 93 |  |  | 92 | 97 | 101 | 90 | 83 | 
13 | 148 to 150 | Cc1nc2cc(F)c(N3CCN(c4ccc(F)cc4)CC3)cc2o1 [Compound 7d, 5-Fluoro-6-[4-(4-fluoro-phenyl)-piperazin-1-yl]-2-methyl-benzooxazole] | 91 | 94 | 85 |  |  |  | 98 | 98 | 87 | 87 | 82 | precipitation problem
14 | 156 to 157 | COc1ccc(N2CCN(c3cc4oc(C)nc4cc3F)CC2)cc1 [Compound 7e, 5-Fluoro-6-[4-(4-methoxy-phenyl)-piperazin-1-yl]-2-methyl-benzooxazole] | 107 | 108 | 91 | 71 |  |  | 93 | 92 | 75 | 74 | 68 | 
